Measured values as given in patent US20080200531A1, “CDKI pathway inhibitors as inhibitors of tumor cell growth” (priority 2006, published 2008).

Experiments:
[1] = system: WI-38 and BJ-EN fibroblasts vs HT1080, HCT116, C33-A, Calu-6; test: 3-day growth inhibition assay (Hoechst 33342), normal fibroblasts vs tumor cell lines; settings: 3-day assay, WI-38, BJ-EN vs HT1080, HCT116, C33-A
Description: (§1) The assays were carried out in 96-well plates, in triplicates; the plated cell numbers for each cell line were determined in preliminary experiments to assure exponential growth over the 3-day period of the assay. The cell numbers were measured by staining DNA of attached cells with Hoechst 33342, and the results for each dose were expressed as the decrease in cell number relative to untreated cells. For some of the tumor/normal cell line combinations, the assays were repeated using CellTiter-Glo viability assay (Promega), with the same results.

[2] = system: HMEC primary cultures, MCF-7 and MDA231; test: 3-day growth inhibition assay (Hoechst 33342), normal mammary epithelial cells vs breast carcinoma lines; settings: 3-day assay; HMEC vs MCF-7 and MDA231
Description: as §1

[3] = system: isogenic human fibroblast cell lines (untransformed, partially transformed, fully transformed); test: Dose-dependent growth inhibition of three isogenic human fibroblast cell lines with increasing neoplastic transformation; assay type: cell-based; settings: 3-day assay, Hoechst 33342
Description: To determine if tumor-specific growth inhibitory activity of SNX9 class compounds could be due to the inhibition of a specific CDK, we took advantage of the availability of selective inhibitors for some of the CDK proteins. Among these enzymes, CDK1, CDK2 and CDK4/CDK6 (the latter two CDKs are closely related to each other and interact with the same class of cyclins), have been used as targets for developing specific inhibitors, with potential anticancer activity. In contrast, CDK3 has not been used as a target for developing selective inhibitors. We have obtained commercially available selective inhibitors of CDK1 (CGP74514A) (Calbiochem Cat. No. 217696), CDK2 (CVT-313) (Calbiochem Cat. No. 238803), and CDK4 (NSC 625987) (Calbiochem Cat. No. 219477), and tested them, along with a broad-specificity CDK inhibitor flavopiridol, and with SNX14, SNX9 and SNX9-1, for growth inhibition of normal and transformed fibroblasts.
This analysis was done using a set of three isogenic human fibroblast cell lines with increasing degrees of neoplastic transformation (immortal but untransformed, partially transformed, and fully transformed).

[4] = system: p21-induced CMV-GFP expression (CDKI pathway); test: CMV-GFP reporter assay for p21-induced transcription (HTS) in HT1080 p21-9 derived reporter cell line; assay type: cell-based, human; settings: libraries screened at 20 μM
Description: As described in a co-pending patent application PCT/US06/0 1046, we have developed a high-throughput screening (HTS) procedure for compounds inhibiting the CDKI pathway. This procedure utilizes a highly sensitive reporter cell line that was generated by infecting HT1080 p21-9 cells, a derivative of HT1080 fibrosarcoma cells that express p21 from a promoter induced by a physiologically neutral β-galactoside IPTG (isopropyl-β-thio-galactoside) with a lentiviral vector that expresses Green Fluorescent Protein (GFP) from the CDKI-inducible cytomegalovirus (CMV) promoter, followed by subcloning of GFP positive cells and monitoring the induction of GFP expression by IPTG. A cell line showing approximately 10-fold increase in GFP upon the addition of IPTG was used for HTS in a 96-well format.
This reporter line was used to screen two diversified small-molecule libraries developed by ChemBridge Corp., Microformat 04 and DiverSet, each comprising 50,000 compounds. These diversified libraries were rationally chosen by ChemBridge by quantifying pharmacophores in a collection of >500,000 drug-like molecules, using a version of Chem-X software to maximize the pharmacophore diversity. The Microformat 04 collection was designed to complement the chemical space covered by the older DiverSet library. ChemBridge libraries have been successfully used by numerous industrial and academic researchers, in a variety of cell-based and cell-free assays. The ChemBridge libraries were screened at 20 μM concentration, a conventional concentration for cell-based screening of these libraries. 62 of 100,000 ChemBridge compounds were identified by HTS and verified as inhibiting the induction of CMV-GFP expression in response to p21. This low hit rate (0.06%) indicates a high selectivity of our assay.
In this experiment, HT1080 p21-9 cells that express firefly luciferase from a CDKI-responsive promoter of cellular NK4 gene were cultured with IPTG for two days, which is sufficient for near-maximal induction of NK4 (Poole et al., supra).

[5] = system: HT1080-derived reporter cell line; test: Growth inhibition and cell death in HT1080-derived reporter cell line; assay type: cell-based, human; settings: cell death detected microscopically by cell detachment
Description: The combination of p21 and SNX9-class compounds leads to both G1 and G2/M arrest, at the levels expected for the combined effects of p21 and SNX9 (FIG. 6).

[6] = system: NFκB p50 and p65 subunits; test: TransAM NFκB p65 and p50 Chemi Transcription Factor Assay (oligonucleotide binding); assay type: cell-based; settings: TNFα-induced or basal
Description: We also tested if these compounds could act as the inhibitors of NFκB, by measuring cellular levels of p50 or p65 subunits binding oligonucleotides containing NFκB consensus binding site, using ACTIVE MOTIF TransAM™ NFκB p65 Chemi and NFκB p50 Chemi Transcription Factor Assay Kits.

Row | Compound | tumor selectivity of growth inhibition, tumor cells vs normal fibroblasts [1] | tumor selectivity of growth inhibition, normal vs transformed mammary cells [2] | selectivity of growth inhibition for transformed cell lines relative to immortal but untransformed fibroblasts [3] | other results
1 | CC(=O)O[C@H]1C(=O)[C@@]2(C)[C@H]([C@H](OC(=O)c3ccccc3)[C@]3(O)C[C@H](OC(=O)[C@H](O)[C@@H](NC(=O)c4ccccc4)c4ccccc4)C(C)=C1C3(C)C)[C@]1(OC(C)=O)CO[C@@H]1C[C@@H]2O [taxol, paclitaxel] | inhibited all the tumor cells to a greater extent than normal fibroblasts | clear tumor selectivity |  | 
2 | COc1cccc2c1C(=O)c1c(O)c3c(c(O)c1C2=O)C[C@@](O)(C(=O)CO)C[C@@H]3O[C@H]1C[C@H](N)[C@H](O)[C@H](C)O1 [doxorubicin] | showed no selectivity | no discrimination between normal and transformed mammary cells |  | 
3 | COc1ccc(CNc2nc(N(CCO)CCO)nc3c2ncn3C(C)C)cc1 [selective inhibitor of CDK2, CVT-313] |  |  | no transformed cell selectivity whatsoever | 
4 | COc1cc(Cl)c2[nH]cc(CCN)c2c1 [Compound 4] |  |  |  | anti-CDKI pathway activity in the reporter assay (induction of CMV-GFP expression in response to p21) [4]: showed anti-CDKI pathway activity in the reporter assay; growth inhibition of the HT1080-derived reporter cell line [5]: associated with the induction of both cell death (as detected microscopically by cell detachment) and cell cycle arrest
5 | CN1CC[C@H](c2c(O)cc(O)c3c(=O)cc(-c4ccccc4Cl)oc23)[C@H](O)C1 [flavopiridol] |  |  | no transformed cell selectivity whatsoever | 
6 | COc1ccc(OC)c2c(=S)c3ccccc3[nH]c12 [selective inhibitor of CDK4, NSC 625987] |  |  | no transformed cell selectivity whatsoever | 
7 | NCCc1c[nH]c2ccc(Cl)cc12 [Compound 3] |  |  |  | anti-CDKI pathway activity in the reporter assay (induction of CMV-GFP expression in response to p21) [4]: showed anti-CDKI pathway activity in the reporter assay; growth inhibition of the HT1080-derived reporter cell line [5]: associated with the induction of both cell death (as detected microscopically by cell detachment) and cell cycle arrest
8 | Cc1ccc(S(=O)(=O)N[C@@H](Cc2ccccc2)C(=O)CCl)cc1 [TPCK, reference compound] |  |  |  | NFκB activity (p50 or p65 binding to NFκB consensus oligonucleotide) [6]: completely blocks NFκB activity
9 | CC[C@@]1(O)C(=O)OCc2c1cc1n(c2=O)Cc2cc3ccccc3nc2-1 [camptothecin] | showed no selectivity | no discrimination between normal and transformed mammary cells |  | 
10 | CCn1cnc2c(Nc3cccc(Cl)c3)nc(N[C@@H]3CCCC[C@@H]3N)nc21 [selective CDK1 inhibitor, CGP74514A] |  |  | Much lower selectivity for transformed cells | 
